{"source": "patent US11426448B2", "about": "“Methods for treatment of erectile dysfunction with sonic hedgehog compounds” (NORTHWESTERN UNIVERSITY, priority 2018, dated 2022)", "tested_on": "MPG/CN neurons", "experiment": "MPG/CN organ culture with Affi-Gel beads, quantification of neurites", "type": "cell-based, Sprague Dawley rats", "conditions": "uninjured MPG/CN, three days, SHH inhibitors on Affi-Gel beads, vs DMSO or PBS"}
{"smiles": "CC1=C2C[C@H]3[C@@H](CC=C4C[C@@H](O)CC[C@@]43C)[C@@H]2CC[C@]12O[C@@H]1C[C@H](C)CN[C@H]1[C@H]2C", "note": "[cyclopamine]", "values": [{"measurement": "neurite formation reduced", "value": 5.6, "unit": "fold"}, {"measurement": "neurite formation reduced / inhibited", "value": 82, "unit": "%"}]}
